Legend:
[1] = Equilibrium interfacial tension calibration of BAK solutions, Langmuir adsorption isotherm fit; type: physicochemical; settings: Langmuir fit of b275
Description: The dynamic interfacial tension of filtered ophthalmic formulations was measured via pendant drop tensiometry using the commercially automated instrument named Kruss DSA 100 (Drop Shape Analyzer). A pendant drop is a drop of the filtered formulation was suspended at the tip of a 14-gauge needle with air as the surrounding phase. The silhouette of the axisymmetric formulation drop is imaged at regular time intervals and iteratively fit to Young-Laplace equation to measure its dynamic surface tension as a function of time. This robust method is commonly employed due to a high-speed and precise estimation of interfacial tension based on drop curvature and concentration of the formulation. […]
[formula] where Γeq is the equilibrium molar surface concentration, Γ∞ is the maximum molar surface concentration, C is the bulk concentration of the aqueous formulation, α and β are adsorption and desorption constants, R is the ideal gas constant, γO is the interfacial tension of the pure solvent (PBS), γ is the equilibrium interfacial tension recorded after 12 minutes of interfacial surface generation, and T is the operating temperature for acquisition of interfacial tension of drug/BAK formulation (recorded at room temperature, 298 K). […]

[2] = Description: The partition coefficients of hydrophilic drugs and BAK in p-HEMA, p-HEMA/t-butyl methacrylate, and p-HEMA/TRIS/t-butyl methacrylate particles were obtained by drug uptake studies. The mass of drug or BAK partitioned into p-HEMA hydrogel matrix was determined by monitoring the amount of drug or BAK lost in the concentrated aqueous drug/PBS or BAK/PBS loading solutions. The amount of drug loss from the concentrated aqueous phase was quantified by time-dependent absorbance measurements using UV-Vis spectrophotometry in a broad spectral range. […]
Time-dependent equilibrium interfacial tension measured via pendant drop tensiometry can be used to quantify the amount of BAK loss from the concentrated aqueous phase. […]
The partition coefficient of BAK in p-HEMA and p-HEMA/Tert-butyl methacrylate particle matrices were obtained by uptake studies. […] The mass of BAK partitioned in the p-HEMA and p-HEMA/TBM particle matrix was determined by monitoring the amount of BAK lost in the concentrated aqueous BAK/PBS loading solutions. The amount of BAK lost from the concentrated aqueous phase was quantified by time-dependent absorbance measurements using UV-Vis spectrophotometry (Genesys™ 10 UV, Thermo Spectronic, Rochester, NY, USA) over a wavelength range of 190-500 nm. […]

Row | Substance | Γ∞ (maximum surface coverage) [1] [mol/m^2] | β/α (ratio of kinetic rate constants) [1] [m^3/mol] | partition coefficient for BAK [2]
1 | Benzalkonium chloride [BAK] | 0.003309 | 462.14 | –
2 | poly(hydroxyethyl methacrylate) [p-HEMA] | – | – | 100-500
